For assay [1], the system named is brain myelination (myelin water fraction). As to the kind of experiment: Cross-sectional correlation of infant formula nutrient content with brain myelination (mcDESPOT MRI myelin water fraction). Type of assay: in vivo, human. The following applies: formula-fed children up to 5 years of age; brain regions named per nutrient. The protocol: MRI (Magnetic Resonance Imaging): MRI brain scans of infants and children between 0 and 5 years were acquired using a white matter imaging technique. This technique provides a quantitative measure, the Myelin Water Fraction (MWF), which is a surrogate marker of myelin content in the brain. When mapped as a function of time across early childhood, myelination trajectories can be generated.
Infant formula composition: six infant formulas fed to infants participating in a study were analyzed for their composition/level of myelin-relevant nutrients.
Infants included in this study were drawn from a larger longitudinal study of normal brain and behavioral development: the Brown University Assessment of Myelination and Behavior Across Maturation (BAMBAM). To focus on neurotypical development, children with known potential risk factors for learning, neurologic, or psychiatric disorders were specifically excluded during recruitment and enrollment. Thus, children with in utero alcohol or illicit substance exposure, premature (<37 weeks gestation) or multiple birth, fetal ultrasound abnormalities, complicated pregnancy (e.g., preeclampsia), APGAR scores <8, NICU admission, neurological disorder (e.g., head injury, epilepsy), psychiatric or developmental disorders in the infant, parents or siblings (including maternal depression requiring medication) were excluded. Ongoing screenings, such as the MCAT for autism, or CBCL for behavioral problems, were further used to remove enrolled children with clinically concerning behaviors or overt medical conditions (such as autism spectrum disorders).
A combination of retrospective and prospective data were acquired from parents via detailed medical histories and parental interview on the type of infant formula used, percentage of breastfeeding to formula feeding, and length of exclusive breastfeeding. This information was updated at each study visit, which occurred approximately every 6 months for children under 2 years, and yearly for older children. Using this information, children were categorized into one of 2 groups: #1. Exclusively formula-fed; and #2. Exclusively breastfed for at least 90 days (3 months). Children who were fed a combination of breastmilk and formula within 3 months were excluded from our analysis. Infants within the exclusively formula-fed group were further sub-divided based on parental reports of the main infant formula used throughout the first 3 months. Main formula was defined as that given 90% of the time or more (in the case were parents used an alternate brand during vacation, for example).
Using these criteria, 94 exclusively formula-fed infants and young children were selected into group #1. These included 13 children who received formula #2; 28 who received formula #5; 8 who received formula #3; 39 who received formula #4; 5 who received formula #1 and 1 who received formula #6. A sample of 52 exclusively breast-fed infants were also selected and matched to the over formula-fed group with regards to mean age, gestation duration, birth weight, male:female ratio, ethnicity ratio, maternal education, family size, and number of languages spoken in the home (in addition to English).
Each infant was scanned using the mcDESPOT (multicomponent Driven Equilibrium Single Pulse Observation of T1 and T2) white matter imaging technique Deoni et al. (Magn. Reson. Med. 2008, 60:1372-1387), which provides a quantitative measure of the myelin water fraction (MWF)—a measure of myelin content—at each point throughout the brain. All infants were scanned during natural (i.e. non-sedated) sleep using acoustically-muffled mcDESPOT imaging protocols. Total imaging times ranged from 19 minutes for the youngest toddlers to 24 minutes for the older 4 year-old children.

Assay [2] concerns neural progenitor cell (NPCs). The assay is described as follows: Differentiation assay: quantification of neuronal and glial marker expression in monolayer NPC culture. Details: key: marker integrated density normalized to DAPI integrated density. The following applies: 9 d culture; for astrocyte cell density: GFAP normalized to DAPI. Type of assay: cell-based, mouse. The protocol:
Generation of neural progenitor cell (NPCs) libraries: dissociation of E14 mouse neocortex E14 pup brains were harvested and placed in ice cold DPBS(1X)+10% Pen/Strep, then they were dissected using a dissecting microscope. From each pup, one brain hemisphere was placed in 2 ml of Neurobasal media/10% P/S/10X Hepes and another brain hemisphere was placed in another tube. The tissue from each tube was aseptically and manually dissociate into single cells, neurobasal complete medium was added and centrifuged at […] for 5 min. The tissue was then re-suspended in neurobasal complete media with GF and placed in a corning suspension culture dish 100 mm×20 mm (#430591). […] 24 well glass bottom plates (Mat Tek […]-1.0-13-F Case, glass bottom 24 well plates) were coated with poly-L-ornithin (Sigma P4957) and Fibronection (Sigma F1141) before use in the assay below. Cells were plated (10,000 cells per well) in Complete media with GF for 24 hours (500 ul per well). […] After 24 hours, it was ensured that cells were attached to the plate, then the medium was carefully removed. […] Note: medium contains no GF. […] The cells were culture for 9 d in media plus 2% Nu Serum, the medium was changed every 2 nd day. For fixation and subsequent immunohistochemical analysis the medium was removed, the cells were rinsed once with 1X PBS for 5 min, and fixed with 4% PFA in 1X PBS for 15 min at 4° C. The cells were then washed twice with 1X PBS for 5 min, left in 1X PBS, wrapped in foil and left overnight at 4C, or they were immediately primary antibody staining was carried out. PBS was removed and enough AB staining solution (1% Goat serum, 1xPBS, and 0.1% triton X) was added to cover the bottom, the block was kept at room temp for 1 hour. Primary antibody dilutions were made in appropriate amount of AB staining solution, 250 ul per well (the antibodies were only kept out on ice for a short time, mouse anti-MAP2 or TUJ1 1:500 (neuron marker), rabbit anti-GFAP(glial marker) 1:1000, chicken anti-Nestin CFP (EGFP antibody (progenitor cell marker)) 1:1000. AB staining solution was removed and a solution of primary antibodies was added to each chamber. The cells were wrapped in foil and kept overnight 4'C. The cells were then washed with 400 ul of AB staining solution for 5 min once to remove primary antibodies. Secondary antibody solutions were made (enough for 250 ul of each chamber) (Goat anti-mouse alexa 488 1:2000, anti-rabbit Cy3 (1:500), anti-chicken alexa 647 1:500, and 1:5000 Dapi). The cells were incubated at room temp for 1 hour in the dark and washed 2 time in AB staining solution for five mins. They were then kept at 4° C. or Imaged using a GE Cytell imager or LSM 710, Zeiss confocal microscope and analyze with ImageJ software(National Institutes of Health). Each marker expression was measured on collected images (integrated density measure in ImageJ) and normalized to DAPI fluorescence, marking all nuclei (integrated density measure). Octanoic Acid were labeled with neuronal beta-tubulin III (TuJ1), subsequent compounds were labeled with Microtubule-associated protein 2 (MAP2).

Take `CCCCC/C=C\C/C=C\C/C=C\C/C=C\CCCC(=O)O` [AA, arachidonic acid]: in assay [1], the “association of nutrient content of infant formula with myelination (myelin water fraction) over time in the brain” value is listed as “an association with myelination (myelin water fraction) was observed”.

With `CCCCCCCC/C=C\CCCCCCCCCCCCCC(=O)O` [Nervonic acid, Nervonic Acid], the astrocyte cell density in assay [2] (Nervonic acid high dose (Dose 3, 1 μm)) is 0.7028; in assay [2] (Nervonic acid low dose (Dose 1, 10 nM)) it was 0.6218; in assay [2] (Nervonic acid med dose (Dose 2, 100 nM)) it was 0.7215. For the same compound, the “Neuronal Cell density” value in assay [2] (Nervonic acid high dose (Dose 3, 1 μm), MAP2 normalized to DAPI) is reported as 0.5394; in assay [2] (Nervonic acid low dose (Dose 1, 10 nM), MAP2 normalized to DAPI) it was 0.4676; in assay [2] (Nervonic acid med dose (Dose 2, 100 nM), MAP2 normalized to DAPI), 0.5656.

As to `CCCCCCCC(=O)O` [Octanoic acid, Octanoic Acid], the astrocyte cell density is given as 7.9 in assay [2] (Octanoic acid high dose (Dose 3, 250 μM)); 3.7 in assay [2] (Octanoic acid low dose (Dose 1, 10 μM)); 6.1 in assay [2] (Octanoic acid med dose (Dose 2, 50 μM)). The “Neuronal Cell density” value was 1.7 in assay [2] (Octanoic acid high dose (Dose 3, 250 μM), TuJ1 normalized to DAPI); 1.2 in assay [2] (Octanoic acid low dose (Dose 1, 10 μM), TuJ1 normalized to DAPI); 1.8 in assay [2] (Octanoic acid med dose (Dose 2, 50 μM), TuJ1 normalized to DAPI).

With `CCCCCCCCCCCCCCCCCC(=O)O` [Stearic acid, Stearic Acid], the astrocyte cell density in assay [2] (Stearic acid high dose (Dose 3, 10 μM)) is listed as 0.85; in assay [2] (Stearic acid low dose (Dose 1, 100 nM)), 0.68; in assay [2] (Stearic acid med dose (Dose 2, 1 μm)), 0.81. Also, the “Neuronal Cell density” value is reported as 0.64 in assay [2] (Stearic acid high dose (Dose 3, 10 μM), MAP2 normalized to DAPI); 0.54 in assay [2] (Stearic acid low dose (Dose 1, 100 nM), MAP2 normalized to DAPI); 0.66 in assay [2] (Stearic acid med dose (Dose 2, 1 μm), MAP2 normalized to DAPI).

Consider `[Ca+2]` [calcium], for which, in assay [1], the “association of nutrient content of infant formula with myelination (myelin water fraction) over time in the brain” value is listed as “an association with myelination (myelin water fraction) was observed”.

For the compound `[Mg+2]` [magnesium], in assay [1], the “association of nutrient content of infant formula with myelination (myelin water fraction) over time in the brain” value is listed as “an association with myelination (myelin water fraction) was observed”.

`[P]` [phosphorus]: the “association of nutrient content of infant formula with myelination (myelin water fraction) over time in the brain” value in assay [1] is “an association with myelination (myelin water fraction) was observed”.

On to `[Zn]` [zinc], for which the “association of nutrient content of infant formula with myelination (myelin water fraction) over time in the brain” value in assay [1] is reported as “an association with myelination (myelin water fraction) was observed”.

As for iron, the “association of nutrient content of infant formula with myelination (myelin water fraction) over time in the brain” value in assay [1] was “an association with myelination (myelin water fraction) was observed”.

phosphatidylcholine: the “association of nutrient content of infant formula with myelination (myelin water fraction) over time in the brain” value in assay [1] is recorded as “an association with myelination (myelin water fraction) was observed”.

With phosphatidylinositol, the “association of nutrient content of infant formula with myelination (myelin water fraction) over time in the brain” value in assay [1] is given as “an association with myelination (myelin water fraction) was observed”.

Consider vitamin B12, for which the “association of nutrient content of infant formula with myelination (myelin water fraction) over time in the brain” value in assay [1] was “an association with myelination (myelin water fraction) was observed”.

(Values after patent US11191293B2, “Nutritional composition and infant formula for promoting myelination of the brain” (NESTEC S.A., priority 2015, dated 2021).)
